This note sets out measurements from patent US20100087475A1, “PHARMACEUTICAL COMPOUNDS” (Biovali Laboratories International (Barbados) S.R.L., priority 2008, published 2010).

What all share (conditions): compound at 10 μM
For test [1], the target named is T1, Sigma σ2 Receptor (Rattus norvegicus, UniProt Q5U3Y7).
T1 construct: Source: Wistar rat brain; from tissue; host or cells: Wistar rat brain
T1 sequence (Q5U3Y7 1-176): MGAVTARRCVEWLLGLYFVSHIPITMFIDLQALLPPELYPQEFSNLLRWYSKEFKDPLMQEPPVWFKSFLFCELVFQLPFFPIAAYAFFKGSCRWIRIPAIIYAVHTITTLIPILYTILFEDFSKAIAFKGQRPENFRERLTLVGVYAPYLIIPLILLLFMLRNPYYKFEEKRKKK
As to the kind of experiment: Radioligand binding, [3H] Ifenprodil, brain. The arrangement: species or system Wistar rat. Here is the method: (§1) Compounds of the invention were subjected to specific binding assays to test their ability to bind to the receptors and transporter proteins described below.
• Reference: Hashimoto et al., Eur. J. Pharmacol., 236:159-163, (1993) • Source: Wistar rat brain • Ligand: 3 nM [3H] Ifenprodil • Vehicle: 1% DMSO • Incubation time/Temp: 60 minutes @ 37° C. • Incubation buffer: 50 mM Tris-HCl, pH 7.4 • Non Specific ligand: 10 μM Ifenprodil • Kd: 4.8 nM • Bmax: 1.3 pmole/mg protein • Specific binding: 85% • Quantitation method: Radioligand binding • Significance criteria: ≧50% of maximum stimulation or inhibition

The target of test [2] is T2, Dopamine D4.2 Receptor (Homo sapiens, UniProt P21917, DEL265-296).
T2 construct: expressed in transfected cells; host or cells: CHO-K1 cells
T2 sequence (P21917 with tags, fused parts or gaps DEL265-296): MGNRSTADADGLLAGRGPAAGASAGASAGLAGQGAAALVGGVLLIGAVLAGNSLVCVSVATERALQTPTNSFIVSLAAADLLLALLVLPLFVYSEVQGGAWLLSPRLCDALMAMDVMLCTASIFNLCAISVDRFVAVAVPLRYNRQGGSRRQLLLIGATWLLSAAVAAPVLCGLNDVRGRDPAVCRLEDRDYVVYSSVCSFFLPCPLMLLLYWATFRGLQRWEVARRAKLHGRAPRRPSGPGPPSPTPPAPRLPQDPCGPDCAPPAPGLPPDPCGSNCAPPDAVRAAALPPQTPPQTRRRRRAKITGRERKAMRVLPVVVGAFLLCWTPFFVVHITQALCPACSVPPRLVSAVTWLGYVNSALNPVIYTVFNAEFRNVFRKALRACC
As to the kind of experiment: Radioligand binding, [3H] Spiperone. The protocol:
as §1
(h) Dopamine D4.2 Receptor:
• Reference: Van Tol et al., Nature, 350:610-614 (1991) • Source: Human recombinant CHO-K1 cells • Ligand: 0.5 nM [^3H]

The target of test [3] is T3, Dopamine D3 Receptor (Homo sapiens, UniProt P35462).
T3 construct: expressed in transfected cells; host or cells: CHO cells
In words: Radioligand binding, [3H] Spiperone. Here is the method:
as §1
(g) Dopamine D3 Receptor:
• Reference: Sokoloff et al., Nature, 347:146-151, (1990) • Source: Human recombinant CHO cells • Ligand: 0.7 nM [3H]

Test [4] concerns the target T4, Dopamine D2L Receptor (Homo sapiens, UniProt P14416).
T4 construct: expressed in transfected cells; host or cells: CHO cells
As to the kind of experiment: Radioligand binding, [3H] Spiperone. The protocol: as §1
(e) Dopamine D2L Receptor:
(§2) • Reference: Grandy et al., Proc. Natl. Acad. Sci. USA, 86:9762-9766 (1989) • Source: Human recombinant CHO cells • Ligand: 0.16 nM [^3H]

In test [5] the target is T5, Adrenergic α2C Receptor (Homo sapiens, UniProt P18825).
T5 construct: expressed in transfected cells; host or cells: insect Sf9 cells
T5 sequence (P18825 1-462): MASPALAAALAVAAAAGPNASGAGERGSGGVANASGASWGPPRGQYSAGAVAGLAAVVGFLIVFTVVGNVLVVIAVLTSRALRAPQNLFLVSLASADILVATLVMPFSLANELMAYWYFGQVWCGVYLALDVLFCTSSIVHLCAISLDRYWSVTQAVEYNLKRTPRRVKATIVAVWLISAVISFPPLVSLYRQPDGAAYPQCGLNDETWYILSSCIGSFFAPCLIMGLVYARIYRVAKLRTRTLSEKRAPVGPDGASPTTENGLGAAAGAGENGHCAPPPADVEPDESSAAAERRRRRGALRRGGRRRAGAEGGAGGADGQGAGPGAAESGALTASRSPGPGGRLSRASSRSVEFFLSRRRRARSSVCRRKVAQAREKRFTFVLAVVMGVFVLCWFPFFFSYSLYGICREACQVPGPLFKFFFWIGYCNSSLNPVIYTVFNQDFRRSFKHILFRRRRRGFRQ
As to the kind of experiment: Radioligand binding, [3H] MK-912. Here is the method:
as §1
(c) Adrenergic α2C Receptor:
(§3) • Reference: S. Uhlçn et al. J. Pharmacol. Exp. Ther., 271:1558-1565 (1994) • Source: Human recombinant insect Sf9 cells • Ligand: 1 nM [^3H]

In test [6] the target is T6, Dopamine D2S Receptor (Homo sapiens, UniProt P14416).
T6 construct: expressed in transfected cells; host or cells: CHO cells
In words: Radioligand binding, [3H] Spiperone. The protocol:
as §1
(f) Dopamine D2S Receptor:
as §2

Test [7] has as its target T7, Adrenergic α2A Receptor (Homo sapiens, UniProt P08913).
T7 construct: expressed in transfected cells; host or cells: insect Sf9 cells
T7 sequence (P08913 1-465): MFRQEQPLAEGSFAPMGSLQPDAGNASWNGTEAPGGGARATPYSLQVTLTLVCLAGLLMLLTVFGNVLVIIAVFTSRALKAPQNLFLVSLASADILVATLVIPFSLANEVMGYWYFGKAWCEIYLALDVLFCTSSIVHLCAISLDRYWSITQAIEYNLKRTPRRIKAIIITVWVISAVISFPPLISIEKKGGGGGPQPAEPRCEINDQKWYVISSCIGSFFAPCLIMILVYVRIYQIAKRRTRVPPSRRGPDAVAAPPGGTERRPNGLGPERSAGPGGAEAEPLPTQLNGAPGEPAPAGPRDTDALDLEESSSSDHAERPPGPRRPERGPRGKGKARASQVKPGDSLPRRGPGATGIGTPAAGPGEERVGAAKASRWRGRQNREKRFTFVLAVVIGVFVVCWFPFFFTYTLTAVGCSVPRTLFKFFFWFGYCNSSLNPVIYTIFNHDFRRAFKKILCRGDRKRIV
As to the kind of experiment: Radioligand binding, [3H] MK-912. Here is the method:
as §1
(a) Adrenergic α2A Receptor:
as §3

Test [8] has as its system Dopamine D4.7 Receptor. As to the kind of experiment: Radioligand binding, [3H] Spiperone. The arrangement: species or system Human. Here is the method: as §1
(j) Dopamine D4.7 Receptor:
• Reference: Van Tol et al., Nature, 350:610-614 (1991) • Source: Human recombinant CHO-K1 cells • Ligand: 1.5 nM [^3H]

One may read the inhibition as the percentage by which the read-out fell short of the control.

T4 sequence (P14416 whole entry): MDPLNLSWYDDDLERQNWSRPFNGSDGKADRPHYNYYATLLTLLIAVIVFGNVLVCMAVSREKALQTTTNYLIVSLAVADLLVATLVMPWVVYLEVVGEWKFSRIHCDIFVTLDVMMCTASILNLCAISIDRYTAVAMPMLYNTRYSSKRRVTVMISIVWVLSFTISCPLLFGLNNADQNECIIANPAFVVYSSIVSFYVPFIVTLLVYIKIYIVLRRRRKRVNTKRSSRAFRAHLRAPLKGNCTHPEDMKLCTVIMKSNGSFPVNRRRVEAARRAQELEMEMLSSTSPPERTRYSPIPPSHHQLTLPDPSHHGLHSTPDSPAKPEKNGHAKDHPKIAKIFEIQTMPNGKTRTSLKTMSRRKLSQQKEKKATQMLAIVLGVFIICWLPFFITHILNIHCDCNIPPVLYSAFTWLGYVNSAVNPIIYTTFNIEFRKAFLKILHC
T6 sequence (P14416 1-414 isoform P14416-2): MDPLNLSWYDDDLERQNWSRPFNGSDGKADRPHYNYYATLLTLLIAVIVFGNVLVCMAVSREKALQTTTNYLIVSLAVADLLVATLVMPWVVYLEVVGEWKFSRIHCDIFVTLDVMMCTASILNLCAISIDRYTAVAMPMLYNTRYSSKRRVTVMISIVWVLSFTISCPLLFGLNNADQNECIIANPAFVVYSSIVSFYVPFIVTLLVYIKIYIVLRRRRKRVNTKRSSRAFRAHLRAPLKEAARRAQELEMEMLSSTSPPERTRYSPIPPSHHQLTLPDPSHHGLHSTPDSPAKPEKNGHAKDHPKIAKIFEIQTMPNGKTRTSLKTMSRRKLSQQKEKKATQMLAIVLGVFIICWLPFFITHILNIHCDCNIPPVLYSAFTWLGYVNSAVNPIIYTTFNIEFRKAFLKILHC
T3 sequence (P35462 whole entry): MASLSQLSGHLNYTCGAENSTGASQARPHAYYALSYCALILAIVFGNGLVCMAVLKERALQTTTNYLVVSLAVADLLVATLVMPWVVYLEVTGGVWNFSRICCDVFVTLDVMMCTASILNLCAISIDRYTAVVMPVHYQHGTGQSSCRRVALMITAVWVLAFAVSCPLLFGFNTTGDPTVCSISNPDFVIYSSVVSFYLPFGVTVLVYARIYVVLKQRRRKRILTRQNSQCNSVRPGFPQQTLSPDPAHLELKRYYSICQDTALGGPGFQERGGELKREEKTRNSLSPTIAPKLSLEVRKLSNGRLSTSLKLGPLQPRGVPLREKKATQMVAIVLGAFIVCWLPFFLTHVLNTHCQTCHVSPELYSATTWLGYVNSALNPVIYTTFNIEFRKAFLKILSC

As to `COc1cc2c(cc1O)[C@@H]1C[C@@H](O)[C@H](CC(C)C)CN1CC2` (single isomer, unassigned) [(+)-10-desmethyl-γ-dihydrotetrabenazine], the inhibition at 10 µM in test [1] (read-out: % inhibition, (n) σ2 Receptor) was determined as 31%. The “% inhibition, (h) D4.2 Receptor” value in test [2] is listed as 55%. In addition, the “% inhibition, (g) D3 Receptor” value in test [3] was found to be 65%. Also, the “% inhibition, (e) D2L Receptor” value in test [4] is reported as 54%. Also, in test [5], the “% inhibition, (c) α2C Receptor” value is −7%. Also, the “% inhibition, (f) D2S Receptor” value in test [6] is recorded as 63%. The “% inhibition, (a) α2A Receptor” value in test [7] was determined as 13%. In addition, the “% inhibition, (j) D4.7 Receptor” value in test [8] amounted to 25%.
With `COc1cc2c(cc1O)[C@@H]1C[C@@H](O)[C@H](CC(C)C)CN1CC2` (single isomer, unassigned) [(−)-10-desmethyl-γ-dihydrotetrabenazine], the “% inhibition, (n) σ2 Receptor” value in test [1] (10 µM) is listed as 32%. For the same compound, the “% inhibition, (h) D4.2 Receptor” value in test [2] is reported as 90%. Moreover, the “% inhibition, (g) D3 Receptor” value in test [3] was determined as 101%. The “% inhibition, (e) D2L Receptor” value in test [4] is reported as 98%. For the same compound, the “% inhibition, (c) α2C Receptor” value in test [5] turned out to be 60%. In addition, the “% inhibition, (f) D2S Receptor” value in test [6] came to 98%. Moreover, in test [7], the “% inhibition, (a) α2A Receptor” value turned out to be 69%. In addition, the “% inhibition, (j) D4.7 Receptor” value in test [8] worked out at 87%.
